We go through one molecule from publication PMC9033620 (RSC Advances, 2021).

The target in the assay is β-tubulin (Sus scrofa, UniProt P02554+Q2XVP4). Briefly: X-ray crystal structure. Type of assay: binding.

pKd: −log10 of the molar value.

Chain of β-tubulin (Q2XVP4 whole entry): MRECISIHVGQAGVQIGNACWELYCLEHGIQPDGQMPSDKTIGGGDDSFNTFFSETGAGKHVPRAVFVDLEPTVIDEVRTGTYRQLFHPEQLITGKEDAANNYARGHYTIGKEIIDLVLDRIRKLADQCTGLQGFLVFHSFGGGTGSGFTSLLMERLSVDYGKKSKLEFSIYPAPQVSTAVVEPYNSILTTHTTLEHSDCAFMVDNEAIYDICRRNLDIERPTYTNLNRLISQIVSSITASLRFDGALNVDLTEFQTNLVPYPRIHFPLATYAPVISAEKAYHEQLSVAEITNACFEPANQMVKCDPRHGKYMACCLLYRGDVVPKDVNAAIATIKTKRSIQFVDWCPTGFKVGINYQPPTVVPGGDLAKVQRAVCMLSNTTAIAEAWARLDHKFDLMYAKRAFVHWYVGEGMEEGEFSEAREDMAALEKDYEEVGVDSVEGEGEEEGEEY
Chain of β-tubulin (P02554 whole entry): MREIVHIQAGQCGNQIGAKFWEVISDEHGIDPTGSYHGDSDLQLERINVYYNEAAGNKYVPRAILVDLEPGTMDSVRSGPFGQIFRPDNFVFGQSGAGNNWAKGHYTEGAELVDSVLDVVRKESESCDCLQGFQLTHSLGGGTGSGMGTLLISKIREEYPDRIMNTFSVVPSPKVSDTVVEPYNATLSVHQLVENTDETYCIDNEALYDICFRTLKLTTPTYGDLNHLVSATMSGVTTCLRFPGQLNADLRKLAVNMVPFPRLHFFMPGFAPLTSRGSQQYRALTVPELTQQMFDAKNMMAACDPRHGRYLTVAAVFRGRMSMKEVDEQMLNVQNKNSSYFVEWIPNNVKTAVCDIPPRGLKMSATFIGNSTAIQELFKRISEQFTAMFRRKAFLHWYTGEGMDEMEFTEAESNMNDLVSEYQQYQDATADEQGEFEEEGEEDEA

`CCCCc1ccc2[nH]c(NC(=O)OC)nc2c1` [parbendazole] gave a pKd of 5.47.
